Laboratory results: PubChem BioAssay AID652207 (The Scripps Research Institute Molecular Screening Center, 2013)
Calls of active or inactive are those of the source.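 The calls were made as follows: active = IC50 below 10 µM for blocking the PP1 phosphatase acting on a fluorogenic substrate; inactive = IC50 of 10 µM or more.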

biological target: Serine/threonine-protein phosphatase PP1-alpha catalytic subunit (Homo sapiens) (UniProt P62136); experiment: dose-dependent PP1alpha phosphatase inhibition – biochemical, fluorescence, OMFP substrate, set 2, dose response (AID 652207); details: purified PP1alpha, OMFP dephosphorylation fluorescence
Sequence (P62136 whole entry, looked up): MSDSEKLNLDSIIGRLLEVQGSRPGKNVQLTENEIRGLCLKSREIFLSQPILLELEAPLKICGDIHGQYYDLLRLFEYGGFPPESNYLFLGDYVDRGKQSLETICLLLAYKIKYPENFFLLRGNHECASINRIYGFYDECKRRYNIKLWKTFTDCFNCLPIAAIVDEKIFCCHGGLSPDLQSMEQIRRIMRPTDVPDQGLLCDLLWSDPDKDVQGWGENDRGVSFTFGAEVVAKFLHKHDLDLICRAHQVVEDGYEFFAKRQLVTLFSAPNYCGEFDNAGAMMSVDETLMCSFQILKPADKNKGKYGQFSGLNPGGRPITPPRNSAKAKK

CN1CCN(C(c2ccccn2)c2ccc3cccnc3c2O)CC1 (stereo unspecified) and Oc1c(C(c2ccccn2)N2CCOCC2)cc(Cl)c2cccnc12 (stereo unspecified) are within 1.5-fold of each other in IC50: 1150 nM for the first, 1320 nM for the second.

Compared with CN1CCN(C(c2nccs2)c2cc(Cl)c3cccnc3c2O)CC1 (stereo unspecified), CN1CCN(C(c2cccs2)c2cc(Cl)c3cccnc3c2O)CC1 (stereo unspecified) is 5.2-fold higher in IC50: 1620 nM for the first, 8420 nM for the second. The first is the more potent here.

Oc1c(Cc2ccccn2)ccc2cccnc12 showed an IC50 of 2640 nM.

With CN1CCN(Cc2cc(Cl)c3cccnc3c2O)CC1 the IC50 was “inactive”.
